Data set [1] deals with breast cancer cell line HS578T. The data set can be described thus: In vitro cytotoxicity, MTS assay, breast cancer cells. It is filed as cell-based, human. As to conditions: 7 days exposure, dose causing death to 50% of cells, read-out: Cell Survival ED 50 Breast. The protocol:
(§1) In these experiments, cells were seeded at 400 cells per well 24 hours prior to addition of the test compound. Cells were grown at 37° C. in a humidified atmosphere of 95% air, 5% CO2 for 7 days with daily media changes. Cytotoxicity was assessed using the CellTiter 96 Aqueous Proliferation Assay (Promega, Madison, Wis.).
Background: Formazan colour is commonly taken as a measure of viable cells.

In data set [2] the test system is hormone-independent prostate cancer cell line DU145. Kind of data set: In vitro cytotoxicity, MTS (CellTiter 96 Aqueous Proliferation Assay), prostate cancer cells. It is filed as cell-based, human. The note with it: 7 days exposure, MTS, dose causing death to 50% of cells, read-out: Cell Survival ED 50 Prostate. The protocol:
FIG. 1 is a graph which compares the effects of the compound of Example 8 on normal human endothelial cells (AH-9) and human prostate cancer cells (DU145). Cells were exposed to the compound for seven days at the concentrations indicated. Cytotoxicity was assessed using the MTS assay.
as §1
In a separate experiment (FIG. 1), normal human endothelial cells (AH-9) and human prostate cancer cells (DU145) were exposed to increasing concentrations of the compound of Example 8 for seven days.

Data set [3] relates to pancreas cancer cell line HS766T. The data set can be described thus: In vitro cytotoxicity, MTS assay, pancreas cancer cells. It is filed as cell-based, human. The note with it: Homo sapiens, 168 h, 7 days exposure, dose causing death to 50% of cells, read-out: Cell Survival ED 50 Pancreas. The protocol: as §1
Data set [4] can be described thus: Mouse formalin test pain model, late phase. It is filed as in vivo. The protocol:
The formalin test was conducted using standard procedures (Hunskaar et al., J. Neurosci. Meth. 14:69-76 (1985). Mice (male CF-1, 20-25 g) were placed in Plexiglass jars for at least 1 hr to accommodate to the environment
The animals received either test drug at 5-50 mg/kg p.o. or the appropriate volume of vehicle (normal saline). Thirty minutes after p.o. dosing mice were injected with formalin (20 μl of 2.5% formaldehyde solution in saline) into the dorsal surface of the right hind paw.
All experiments were done in a blinded manner. The late phase of the formalin response was measured as licking/biting from 10-50 minutes after formalin injection. Differences between groups were analyzed by one-way analysis of variance (ANOVA), A P value ≦0.05 was considered significant. Reduction in the time spent licking/biting in the late phase of the formalin response is considered an indication of a reduction in chronic pain.

The structures appear in SMILES notation. Like-named read-outs stand apart in the source and are kept apart here.

In the case of `COc1cccc2c1C(=O)c1c(O)c3c(c(O)c1C2=O)C[C@@](O)(C(=O)CO)C[C@@H]3O[C@H]1C[C@H](N)[C@H](O)[C@H](C)O1` [Doxorubicin, doxorubicin, reference compound], the EC50 was determined as 2 µM in data set [1] (Homo sapiens, Hs-578T, 168 h); 7 µM in data set [2] (Homo sapiens, DU-145, 168 h); 0.3 µM in data set [3].
`C[C@]12CC[C@@H]3c4ccc(OC(=O)N(CCCl)CCCl)cc4CC[C@H]3[C@@H]1CC[C@@H]2O` [Estramustine, reference compound]: the EC50 in data set [2] (Homo sapiens, DU-145, 168 h) is 11 µM.
For the compound `COc1cc([C@@H]2c3cc4c(cc3[C@@H](O[C@@H]3O[C@@H]5CO[C@@H](C)O[C@H]5[C@H](O)[C@H]3O)[C@H]3COC(=O)[C@H]23)OCO4)cc(OC)c1O` [Etoposide, etoposide, reference compound], the EC50 in data set [1] (Homo sapiens, Hs-578T, 168 h) came to 0.4 µM; in data set [2] (Homo sapiens, DU-145, 168 h) it was 0.6 µM; in data set [3], 2 µM.
On the same counts, the results for `Cc1ccc(NC(=N)N(CCCCN)c2ccc(C)cc2)cc1` [Example 4, 1-Amino-4-[(N,N′-di-p-tolyl)guanidinyl]butane] are 1.7 µM, 2.5 µM and 0.2 µM.
For `Cc1ccc(NC(=N)N(CCCCN(C(=N)Nc2ccc(C)cc2)c2ccc(C)cc2)c2ccc(C)cc2)cc1` [Example 5, 1,4-Di-[(N,N′-di-p-tolyl)guanidinyl]butane], the EC50 came out at 0.3 µM in data set [1] (Homo sapiens, Hs-578T, 168 h) and 0.7 µM in data set [2] (Homo sapiens, DU-145, 168 h).
Turning to `Cc1ccc(NC(=N)N(CCc2c[nH]c3ccccc23)c2ccc(C)cc2)cc1` [Example 9, 1-[(N,N′-di-p-tolyl)guanidinyl]-2-(3-indolyl)ethane], the EC50 in data set [1] (Homo sapiens, Hs-578T, 168 h) came out at 4.2 µM; in data set [2] (Homo sapiens, DU-145, 168 h), 5.1 µM; in data set [3], 0.5 µM.
Take `Cc1ccc(N(c2ccc(C)cc2)N2CCC(C#N)(c3ccccc3)CC2)cc1` [Example 14, 4-Cyano-1-[(N,N′-di-p-tolyl)amino]-4-phenylpiperidine]: the EC50 in data set [1] (Homo sapiens, Hs-578T, 168 h) was found to be 4.6 µM; in data set [2] (Homo sapiens, DU-145, 168 h), 10.8 µM.
Regarding `Cc1ccc(NC(=NCCCOCCCCOCCCN=C(Nc2ccc(C)cc2)Nc2ccc(C)cc2)Nc2ccc(C)cc2)cc1` [Example 15], the figures for the EC50 in data set [1] and in data set [2] were 0.9 µM and 2.5 µM, respectively.
On to `Cc1ccc(N=C(Nc2ccc(C)cc2)N2CCOCCOCCN(C(=Nc3ccc(C)cc3)Nc3ccc(C)cc3)CCOCCOCC2)cc1` [Example 16, 7,16-Di-[(N,N′-Di-p-tolyl)amidino]-1,4,10,13-tetraoxa-7,16-diazacyclooctadecane], for which the EC50 came to 0.6 µM in data set [1] (Homo sapiens, Hs-578T, 168 h) and 1 µM in data set [2] (Homo sapiens, DU-145, 168 h).
For the compound `Cc1ccc(NC(=N)N(CCN(C(=N)Nc2ccc(C)cc2)c2ccc(C)cc2)c2ccc(C)cc2)cc1` [Example 21, 1,2-Di-[(N,N′-di-p-tolyl)guanidinyl]ethane], the “late phase pain versus control vehicle (post-hoc Newman-Kuels test)” value in data set [4] (30 mg/kg orally) is reported as “significant at P<0.05”. Also, the “effect on general behavior of the animals” value in data set [4] (at the doses effective in the formalin test, p.o.) was “did not affect the general behavior”. Also, the “time spent licking, late phase of formalin response (in words)” value in data set [4] (oral administration, 5-50 mg/kg, male CF-1 mice) was “dose-dependent reduction in the time spent licking”.
Regarding `CC[C@]1(O)C[C@@H]2CN(CCc3c([nH]c4ccccc34)[C@@](C(=O)OC)(c3cc4c(cc3OC)N(C)[C@H]3[C@@](O)(C(=O)OC)[C@H](OC(C)=O)[C@]5(CC)C=CCN6CC[C@]43[C@@H]65)C2)C1` [Vinblastine, vinblastine, reference compound], the EC50 turned out to be 1.2 µM in data set [1] (Homo sapiens, Hs-578T, 168 h); 4 µM in data set [2] (Homo sapiens, DU-145, 168 h); 0.2 µM in data set [3].
